Laboratory results: US7276233B2, “Methods of treating neoplasia with combinations of target cell-specific adenovirus and chemotherapy” (priority 2001, dated 2007)
Read-outs that look alike come from different tables or passages of the source.

What was measured:
[1] = system: LNCaP prostate tumor xenografts; format: in vivo, athymic Balb/c nu/nu mice; conditions: for change in tumor growth (FIG. 24): alone or with CV787 1×10^10 particles, 5 week period
[2] = system: LNCaP prostate tumor xenografts; format: in vivo, athymic Balb/c nu/nu mice
Description: Six to eight week old athymic Balb/c nu/nu mice were obtained from Simonson Laboratories (Gilroy, Calif.) and acclimatized to laboratory conditions one week prior to tumor implantation. Xenografts were established by injecting 1×10^6 LNCaP cells, suspended in 100 μd of RPMI 1640 and 100 μd of matrigel, subcutaneously near the small of the back. When tumors reached between 400 mm^3 and 600 mm^3, mice were randomized into groups of four. The first group received 1×10^10 particles of CV787 at day 1 via the tail vein intravenously (i.v.). CV787 was diluted in 0.1 ml lyophilized buffer (5% sucrose, 1% glycine, 1 mM MgCl2, 0.05% Tween-80 in 10 mM Tris buffer) and injected into the tail vein using a 28-gauge needle. The second group was given taxane only. Paclitaxel was intraperitoneally administered at a dose of 20 mg/kg, daily for 4 days starting at day 2. Docetaxel was intravenously administered at a dose of 5 or 12.5 mg/kg at day 2, 5 and 8. The third group was given CV787 (i.v.) at day 1 and taxane at the same doses and schedule as the second group. As a control, a fourth group was treated with 0.1 ml of normal saline (i.e. control) i.v. at day 1 and then i.p. or i.v. for 4 days. The dose and route of administration of paclitaxel were selected according to studies in nude mice (Riondel, J. et al., 1986, Cancer Chemother Pharmacol. 17:137-42.) (Chahinian, A. P. et al., 1998, J. Surg. Onc. 67:104-111.). For docetaxel, the dose was selected based on the human clinical dose. (RPR Pharm. Inc., Collegeville, Pa.) and determined by a dose-range finding study in nude mice. Tumors were measured weekly in two dimensions by external caliper and volume was estimated by the formula [length (mm)×width (mm)^2]/2 (7). Animals were humanely killed when their tumor burden became excessive. Serum was harvested weekly by retro-orbital bleed. The difference in mean tumor volume between treatment groups was compared for statistical significance using the unpaired, two-tailed, t-test. Blood samples were collected at various time points for determining prostate-specific antigen. Federal and institutional guidelines for animal care were followed.
Six to eight week old athymic Balb/c nu/nu mice were obtained from Simonson Laboratories (Gilroy, Calif.) and acclimatized to laboratory conditions one week prior to tumor implantation. Xenografts were established by injecting 1×10^6 LNCaP cells subcutaneously near the small of the back suspended in 100 μl of RPMI 1640 and 100 μl of maltrigel (Collaborative Biochemical Products). When tumors reached between 400 mm^3 and 600 mm^3, mice were randomized in groups of four each to receive either 1×10^10 particles of CV787 at day 1 via the tail vein or paclitaxel, 20 mg/kg intraperitoneally (i.p.) daily for 4 days starting at day 2, versus controls treated with normal saline 0.1 ml i.v. at day 1 and then i.p. for 4 days. In addition, another group of mice received the combination of CV787 and paclitaxel at the same doses and schedule as above. CV787 was diluted in lyophilized buffer and injected into tail vein in a volume of 0.1 ml using a 28-gauge needle. The dose and route of administration of paclitaxel were selected according to studies in nude mice by Riondel et al., (1986) Cancer Chemother Pharmacol. 17:137. These authors conducted acute toxicity studies of paclitaxel in nude mice and selected the unit dose of 12.5 mg/kg daily, being 1/20th of the LD50 dose (lethal dose for 50% of animals). Tumors were measured weekly in two dimensions by external caliper and volume was estimated by the formula [length (mm)×width (mm)^2]/2. Animals were humanely killed when their tumor burden became excessive. Serum was harvested weekly by retro-orbital bleed. The difference in mean tumor volume between treatment groups was compared for statistical significance using the unpaired, two-tailed, t-test. Blood samples were collected at various time points for determining prostate-specific antigen (PSA). […]

[3] = system: LNCaP prostate tumor xenografts; test: LNCaP xenograft antitumor efficacy, intratumorally administered CV787 with paclitaxel; format: in vivo, athymic Balb/c nu/nu mice; conditions: 6 weeks after treatment
Method: Six to eight week old athymic Balb/c nu/nu mice were obtained from Simonson Laboratories (Gilroy, Calif.) and acclimatized to laboratory conditions one week prior to tumor implantation. Xenografts were established by injecting 1×10^6 LNCaP cells subcutaneously near the small of the back suspended in 100 μl of RPMI 1640 and 100 μl of maltrigel (Collaborative Biochemical Products). When tumors reached between 400 mm^3 and 600 mm^3, mice were randomized in groups of four each to receive either 1×10^10 particles of CV787 at day 1 via the tail vein or paclitaxel, 20 mg/kg intraperitoneally (i.p.) daily for 4 days starting at day 2, versus controls treated with normal saline 0.1 ml i.v. at day 1 and then i.p. for 4 days. […] Tumors were measured weekly in two dimensions by external caliper and volume was estimated by the formula [length (mm)×width (mm)^2]/2. […]
The in vivo antitumor efficacy of intratumorally administered CV787 and the interaction of CV787 in the combination with paclitaxel was assessed in the LNCaP mouse xenograft model as described above. […]
All treatment groups received identical injections of the active agent or vehicle control into both the tumor and peritoneum. Tumor volume was measured just before the injection of test articles and once a week for 6 weeks thereafter.

[4] = system: LNCaP (prostate carcinoma) cells; test: cells; format: cell-based, human; conditions: for cell survival: LNCaP, CV787 MOI 0.01
Method: In preliminary experiments, we examined the chemosensitivity to different agents, as well as the oncolytic effect of CV787 in the prostate carcinoma LNCaP cells. Cells were plated in 96-well plates at a density of 20,000 cells per well. […] […] Cells were incubated at 37° C. in 5% CO2 for an additional two days. Cell viability was measured using the MTT assay. Mosmann et al., (1983). Briefly, 50 μl of 1 mg/ml MTT vital dye (Sigma, St. Louis, Mo.) was added to each well and allowed to incubate for 3 h at 37° C. and 5% CO2. Then, plates were drained to remove untransformed MTT and blot. 100 μl of isopropanol was added to each well, the plate was incubated for 15 minutes and vigorously shaken (Microshaker II, Dynatech) in order to ensure solubilization of the blue formazan. The optical density of each well was quantitated using an automatic plate reader (Molecular Devices, Sunnyvale, Calif.) with a 560 nm test wavelength and 690 nm reference wavelength. Cell viability was defined as the ratio of the mean absorbance of 9 treatment wells minus the blank to the mean absorbance of 6 untreated matched controls minus the blank. […] Each experiment was performed at least twice.
To study potential synergy or enhancement in treatment when administering CV787 and chemotherapy in vitro, the effectiveness of the combined treatment at several concentrations of paclitaxel, ranging from 0-62.5 nM, […], with CV787 at various MOIs, ranging from 0-10 MOI, was evaluated in the prostate carcinoma LNCaP cells. Cells were treated with CV787 and paclitaxel or docetaxel and the cell viability was determined at various time points after treatment by an MTT assay, as shown in FIGS. 2-4. […] To determine whether the timing of administration for the testing articles affected the combined oncolytic effect, LNCaP cells were treated with paclitaxel for 24 hours before or after infection with CV787.
The protocols described above were used to screen a number of different chemotherapeutic agents from various classes of chemotherapeutics. […]

[5] = system: caspase-7, poly-ADP-ribose-polymerase, Fas/Fas-L, Bcl-2, Bcl-XL, Bax; test: Immunoblot of apoptosis related protein markers in treated LNCaP cells; format: cell-based, human; conditions: docetaxel 6.0 nM, CV787 MOI 0.5
Description: Enhanced chemiluminescence (ECL; Amersham Pharmacia) was used for detection. […] All antibodies were used according manufacturer's instruction.

[6] = format: in vivo, Balb/C mice; conditions: docetaxel alone
Description: Finally, and of clinical significance are two other results. […] Indeed, animals treated with both CV787 and taxotere gain 24% more weight than untreated control animals (Table 2).

[7] = CV787 1×10^10 particles i.v. single dose, paclitaxel 20 mg/kg 4 doses

Row | SMILES | change in tumor growth (FIG. 24) ([1]; paclitaxel 2 mg/kg) | change in tumor growth (FIG. 24) ([1]; paclitaxel 10 mg/kg) | time after treatment at which the regression was produced [2, 7] | tumor regression produced [2, 7] | tumor growth inhibition compared with the control group ([2]; day 21, CV787 1×10^10 particles, paclitaxel 20 mg/kg) | relative tumor volume, % of baseline ([2]; four weeks after treatment, CV787 1×10^10 particles i.v. day 1, paclitaxel 20 mg/kg i.p. daily for 4 days) | relative tumor volume, % of baseline ([2]; ten weeks after treatment, CV787 1×10^10 particles i.v., paclitaxel 20 mg/kg) | average tumor volume ([3]; CV787 1×10^7 particles/mm^3 intratumoral day 1, paclitaxel 15 mg/kg daily for four days) | average tumor volume, % of baseline ([3]; CV787 1×10^7 particles/mm^3 intratumoral, paclitaxel 15 mg/kg) | cell survival ([4]; 6 days after virus infection, paclitaxel 6.25 nM) | relative tumor volume, % of baseline ([1]; four weeks after treatment, CV787 1×10^10 particles i.v. day 1, docetaxel 10 mg/kg i.v.) | effect of single agent on tumor growth ([2]; CV787 1×10^10 particles i.v., docetaxel 5.0 mg/kg i.v.) | minimum tumor volume, % of the original tumor volume ([2]; docetaxel 5 mg/kg alone, reached by week 1) | course of tumor volume (FIG. 29) ([2]; docetaxel 5 mg/kg, CV787 1×10^10 particles (CV787 alone also 1×10^11 particles), 6 weeks) | change of Bcl-2 expression [5] | body weight [6] | IC50 ([4]; Homo sapiens, 120 h, LNCaP cells, day 5, dose-response curve analysis) | cell survival ([4]; day 7 post treatment, % of the control, docetaxel 3.12 nM 24 hour before virus)
1 | CC(=O)O[C@H]1C(=O)[C@@]2(C)[C@H]([C@H](OC(=O)c3ccccc3)[C@]3(O)C[C@H](OC(=O)[C@H](O)[C@@H](NC(=O)c4ccccc4)c4ccccc4)C(C)=C1C3(C)C)[C@]1(OC(C)=O)CO[C@@H]1C[C@@H]2O [paclitaxel] | progressive enlargement of the tumor | merely arrests tumor growth | 2 weeks | partial tumor regression | 70% | 31 % of baseline | 149 % of baseline | 630 mm^3 | 166 % of baseline | 100% |  |  |  |  |  |  |  | 
2 | CC(=O)O[C@@]12CO[C@@H]1C[C@H](O)[C@@]1(C)C(=O)[C@H](O)C3=C(C)[C@@H](OC(=O)[C@H](O)[C@@H](NC(=O)OC(C)(C)C)c4ccccc4)C[C@@](O)([C@@H](OC(=O)c4ccccc4)[C@H]21)C3(C)C [docetaxel] |  |  |  |  |  |  |  |  |  |  | 49 % of baseline | stabilization of tumor growth | approximately 50% | by week 6 has reached the starting tumor volume | did not observe a significant change | transient weight loss | 8.14 nM | 95%
